Experimental data from the kinase profiling compilation of Christmann-Franck et al. (2016).

What was measured:
Test in all cases: KINOMEscan competition binding
Conditions in all cases: compound 10.0 µM
TLK2 (human) = TLK2 (human) (UniProt Q86UE8)
MAP3K7 (human) = MAP3K7 (human) (UniProt O43318)
HIPK4 (human) = HIPK4 (human) (UniProt Q8NE63)
KIT (human) = KIT (human) (UniProt P10721)
TYRO3 (human) = TYRO3 (human) (UniProt Q06418)
PRPF4B (human) = PRPF4B (human) (UniProt Q13523)
MAPK13 (human) = MAPK13 (human) (UniProt O15264)
PAK7 (human) = PAK7 (human) (UniProt Q9P286)
SRMS (human) = SRMS (human) (UniProt Q9H3Y6)
STK3 (human) = STK3 (human) (UniProt Q13188)
LIMK2 (human) = LIMK2 (human) (UniProt P53671)
MINK1 (human) = MINK1 (human) (UniProt Q8N4C8)
ADCK3 (human) = ADCK3 (human) (UniProt Q8NI60)
ADCK3 (human), sequence (Q8NI60 whole entry, looked up): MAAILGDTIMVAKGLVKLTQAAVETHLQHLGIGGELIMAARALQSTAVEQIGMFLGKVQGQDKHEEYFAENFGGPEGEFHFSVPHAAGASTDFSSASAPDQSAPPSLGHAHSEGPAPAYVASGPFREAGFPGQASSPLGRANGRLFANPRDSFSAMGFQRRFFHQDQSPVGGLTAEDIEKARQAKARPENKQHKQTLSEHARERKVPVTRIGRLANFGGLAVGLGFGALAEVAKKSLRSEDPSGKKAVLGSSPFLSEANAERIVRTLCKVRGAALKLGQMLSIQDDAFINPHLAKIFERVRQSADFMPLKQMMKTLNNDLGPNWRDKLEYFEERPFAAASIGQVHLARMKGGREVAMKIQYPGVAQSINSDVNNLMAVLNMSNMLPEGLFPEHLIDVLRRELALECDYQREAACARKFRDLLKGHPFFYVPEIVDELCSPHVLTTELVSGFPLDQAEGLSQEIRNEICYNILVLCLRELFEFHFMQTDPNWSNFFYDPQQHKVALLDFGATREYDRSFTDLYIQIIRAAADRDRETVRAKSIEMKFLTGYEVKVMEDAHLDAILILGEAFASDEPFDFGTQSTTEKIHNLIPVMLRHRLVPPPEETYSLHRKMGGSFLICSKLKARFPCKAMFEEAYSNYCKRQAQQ

PIK3CB (human) = PIK3CB (human) (UniProt P42338)
ERBB2 (human) = ERBB2 (human) (UniProt P04626)
IRAK1 (human) = IRAK1 (human) (UniProt P51617)
IRAK1 (human), sequence (P51617 whole entry, looked up): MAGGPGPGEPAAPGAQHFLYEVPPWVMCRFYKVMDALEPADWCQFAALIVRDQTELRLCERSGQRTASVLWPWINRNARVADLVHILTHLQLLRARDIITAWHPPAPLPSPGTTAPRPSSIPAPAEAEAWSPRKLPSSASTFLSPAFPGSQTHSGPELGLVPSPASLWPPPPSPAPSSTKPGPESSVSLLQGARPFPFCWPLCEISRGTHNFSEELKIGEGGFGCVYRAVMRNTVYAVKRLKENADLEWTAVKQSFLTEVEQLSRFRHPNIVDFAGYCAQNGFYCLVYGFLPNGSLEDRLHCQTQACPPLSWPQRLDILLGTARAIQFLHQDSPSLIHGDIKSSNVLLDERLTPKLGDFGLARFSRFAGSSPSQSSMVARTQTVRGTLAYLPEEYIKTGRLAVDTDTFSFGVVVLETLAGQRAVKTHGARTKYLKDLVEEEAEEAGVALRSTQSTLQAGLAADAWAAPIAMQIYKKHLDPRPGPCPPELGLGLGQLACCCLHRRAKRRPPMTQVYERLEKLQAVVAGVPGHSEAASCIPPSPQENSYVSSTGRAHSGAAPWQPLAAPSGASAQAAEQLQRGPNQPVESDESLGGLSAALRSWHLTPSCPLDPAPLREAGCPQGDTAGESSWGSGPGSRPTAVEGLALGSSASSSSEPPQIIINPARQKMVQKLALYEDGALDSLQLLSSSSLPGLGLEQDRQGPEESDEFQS

OXSR1 (human) = OXSR1 (human) (UniProt O95747)
OXSR1 (human), sequence (O95747 whole entry, looked up): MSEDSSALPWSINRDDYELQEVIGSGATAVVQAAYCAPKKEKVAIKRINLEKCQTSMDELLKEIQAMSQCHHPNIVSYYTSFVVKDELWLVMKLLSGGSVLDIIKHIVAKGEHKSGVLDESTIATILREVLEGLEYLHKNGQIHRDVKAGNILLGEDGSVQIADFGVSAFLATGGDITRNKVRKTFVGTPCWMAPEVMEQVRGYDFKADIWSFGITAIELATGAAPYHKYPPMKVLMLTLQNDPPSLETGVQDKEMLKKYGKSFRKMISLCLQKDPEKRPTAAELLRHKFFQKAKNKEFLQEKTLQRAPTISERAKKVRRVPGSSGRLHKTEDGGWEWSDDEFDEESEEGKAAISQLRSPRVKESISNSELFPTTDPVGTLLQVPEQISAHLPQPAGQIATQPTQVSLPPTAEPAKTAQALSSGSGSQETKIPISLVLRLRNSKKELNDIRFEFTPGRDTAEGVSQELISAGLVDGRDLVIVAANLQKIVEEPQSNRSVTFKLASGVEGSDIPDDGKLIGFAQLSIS

ACVR1 (human) = ACVR1 (human) (UniProt Q04771)
ACVR1 (human), sequence (Q04771 whole entry, looked up): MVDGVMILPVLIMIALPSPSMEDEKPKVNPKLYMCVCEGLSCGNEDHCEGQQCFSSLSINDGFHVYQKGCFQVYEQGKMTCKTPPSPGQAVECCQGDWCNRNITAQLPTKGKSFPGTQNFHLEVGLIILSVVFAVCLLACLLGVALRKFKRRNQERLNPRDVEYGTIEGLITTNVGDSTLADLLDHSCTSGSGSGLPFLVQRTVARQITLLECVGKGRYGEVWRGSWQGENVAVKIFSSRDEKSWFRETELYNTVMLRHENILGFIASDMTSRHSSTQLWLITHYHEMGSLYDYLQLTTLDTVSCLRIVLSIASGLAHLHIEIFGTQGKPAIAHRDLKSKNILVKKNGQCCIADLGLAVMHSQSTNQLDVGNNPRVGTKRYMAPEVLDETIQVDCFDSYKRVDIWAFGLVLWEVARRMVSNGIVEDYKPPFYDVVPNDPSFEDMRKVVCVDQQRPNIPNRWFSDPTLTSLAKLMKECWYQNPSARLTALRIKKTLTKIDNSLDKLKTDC

[1] = tested on: MET (human), P08581 [Y1235D]
MAPK12 (human) = MAPK12 (human) (UniProt P53778)
[2] = molecular target: TYK2 JH2 pseudokinase (human) (UniProt P29597)
MTOR (human) = MTOR (human) (UniProt P42345)
TIE1 (human) = TIE1 (human) (UniProt P35590)
MARK2 (human) = MARK2 (human) (UniProt Q7KZI7)
MAPK14 (human) = MAPK14 (human) (UniProt Q16539)
DSTYK (human) = DSTYK (human) (UniProt Q6XUX3)
PDPK1 (human) = PDPK1 (human) (UniProt O15530)
PDPK1 (human), sequence (O15530 whole entry, looked up): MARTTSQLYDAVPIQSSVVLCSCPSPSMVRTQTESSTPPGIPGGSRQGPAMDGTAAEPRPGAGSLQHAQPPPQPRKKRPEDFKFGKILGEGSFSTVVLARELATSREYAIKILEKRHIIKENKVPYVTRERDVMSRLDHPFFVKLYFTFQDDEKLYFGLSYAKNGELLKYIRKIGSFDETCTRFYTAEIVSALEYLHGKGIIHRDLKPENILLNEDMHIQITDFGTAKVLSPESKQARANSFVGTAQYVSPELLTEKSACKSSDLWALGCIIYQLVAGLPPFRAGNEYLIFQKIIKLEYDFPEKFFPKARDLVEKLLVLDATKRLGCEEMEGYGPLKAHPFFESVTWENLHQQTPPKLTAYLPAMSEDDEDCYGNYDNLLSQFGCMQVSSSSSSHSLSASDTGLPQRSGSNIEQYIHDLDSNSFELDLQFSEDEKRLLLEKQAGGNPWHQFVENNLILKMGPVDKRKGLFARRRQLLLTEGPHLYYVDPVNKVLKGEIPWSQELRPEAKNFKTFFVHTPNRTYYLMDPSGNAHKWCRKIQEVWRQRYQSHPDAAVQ

GAK (human) = GAK (human) (UniProt O14976)
CLK2 (human) = CLK2 (human) (UniProt P49760)
STK35 (human) = STK35 (human) (UniProt Q8TDR2)
RIOK3 (human) = RIOK3 (human) (UniProt O14730)
RIOK3 (human), sequence (O14730 whole entry, looked up): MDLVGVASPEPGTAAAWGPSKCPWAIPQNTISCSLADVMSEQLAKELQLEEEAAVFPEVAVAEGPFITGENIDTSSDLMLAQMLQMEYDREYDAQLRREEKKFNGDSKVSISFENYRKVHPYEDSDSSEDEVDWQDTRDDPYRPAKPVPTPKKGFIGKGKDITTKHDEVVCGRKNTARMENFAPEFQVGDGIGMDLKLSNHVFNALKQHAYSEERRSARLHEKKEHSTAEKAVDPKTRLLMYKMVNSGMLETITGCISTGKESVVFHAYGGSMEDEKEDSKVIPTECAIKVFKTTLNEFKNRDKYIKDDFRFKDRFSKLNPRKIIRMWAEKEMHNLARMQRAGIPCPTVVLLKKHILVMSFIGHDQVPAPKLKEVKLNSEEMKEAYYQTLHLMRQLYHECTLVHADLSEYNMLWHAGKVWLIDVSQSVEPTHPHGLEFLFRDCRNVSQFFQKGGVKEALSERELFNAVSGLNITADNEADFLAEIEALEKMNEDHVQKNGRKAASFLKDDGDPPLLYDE

TGFBR1 (human) = TGFBR1 (human) (UniProt P36897)
[3] = tested on: FLT3 (human), P36888 [R834Q]
RPS6KA5 KD1 (human) = RPS6KA5 KD1 (human) (UniProt O75582)
AURKB (human) = AURKB (human) (UniProt Q96GD4)
RIPK2 (human) = RIPK2 (human) (UniProt O43353)
HCK (human) = HCK (human) (UniProt P08631)
DYRK1A (human) = DYRK1A (human) (UniProt Q13627)
STK10 (human) = STK10 (human) (UniProt O94804)
[4] = tested on: KIT (human), P10721 [L576P]

HIPK4 (human), sequence (Q8NE63 whole entry, looked up): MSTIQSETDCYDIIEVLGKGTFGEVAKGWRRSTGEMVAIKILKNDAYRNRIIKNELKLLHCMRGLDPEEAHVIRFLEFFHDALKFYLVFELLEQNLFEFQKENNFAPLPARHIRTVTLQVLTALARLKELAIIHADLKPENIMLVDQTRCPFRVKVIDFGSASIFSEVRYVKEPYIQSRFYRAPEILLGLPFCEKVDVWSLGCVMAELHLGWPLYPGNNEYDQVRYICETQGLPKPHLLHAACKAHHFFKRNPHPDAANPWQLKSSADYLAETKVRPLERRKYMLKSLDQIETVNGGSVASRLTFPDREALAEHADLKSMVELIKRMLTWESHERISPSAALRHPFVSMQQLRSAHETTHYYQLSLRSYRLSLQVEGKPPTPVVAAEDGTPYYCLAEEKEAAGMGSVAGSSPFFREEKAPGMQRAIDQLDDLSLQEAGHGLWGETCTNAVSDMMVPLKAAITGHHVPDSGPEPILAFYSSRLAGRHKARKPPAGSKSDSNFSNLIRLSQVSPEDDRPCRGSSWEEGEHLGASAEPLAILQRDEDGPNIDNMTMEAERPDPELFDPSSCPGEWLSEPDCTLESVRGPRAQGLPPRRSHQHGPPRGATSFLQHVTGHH
MAP3K7 (human), sequence (O43318 whole entry, looked up): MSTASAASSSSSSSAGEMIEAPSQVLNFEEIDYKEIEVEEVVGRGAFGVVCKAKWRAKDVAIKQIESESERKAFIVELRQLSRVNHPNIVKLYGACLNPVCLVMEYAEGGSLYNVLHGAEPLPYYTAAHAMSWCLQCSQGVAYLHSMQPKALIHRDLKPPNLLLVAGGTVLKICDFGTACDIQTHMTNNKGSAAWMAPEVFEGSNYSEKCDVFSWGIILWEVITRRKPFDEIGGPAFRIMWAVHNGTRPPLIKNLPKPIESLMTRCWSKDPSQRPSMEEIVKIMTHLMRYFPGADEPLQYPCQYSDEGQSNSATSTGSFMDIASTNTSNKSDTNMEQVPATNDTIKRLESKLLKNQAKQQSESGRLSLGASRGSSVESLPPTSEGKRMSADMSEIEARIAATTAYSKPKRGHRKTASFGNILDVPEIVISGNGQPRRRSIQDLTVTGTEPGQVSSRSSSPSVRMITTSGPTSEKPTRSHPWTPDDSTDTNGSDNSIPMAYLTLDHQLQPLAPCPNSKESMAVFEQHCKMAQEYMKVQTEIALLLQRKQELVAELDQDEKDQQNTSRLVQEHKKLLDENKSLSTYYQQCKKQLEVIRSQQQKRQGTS

Row | Structure (SMILES) | kinase still bound, per cent of control (TLK2 (human)) [%] | kinase still bound, per cent of control (MAP3K7 (human)) [%] | kinase still bound, per cent of control (HIPK4 (human)) [%] | kinase still bound, per cent of control (KIT (human)) [%] | kinase still bound, per cent of control (TYRO3 (human)) [%] | kinase still bound, per cent of control (PRPF4B (human)) [%] | kinase still bound, per cent of control (MAPK13 (human)) [%] | kinase still bound, per cent of control (PAK7 (human)) [%] | kinase still bound, per cent of control (SRMS (human)) [%] | kinase still bound, per cent of control (STK3 (human)) [%] | kinase still bound, per cent of control (LIMK2 (human)) [%] | kinase still bound, per cent of control (MINK1 (human)) [%] | kinase still bound, per cent of control (ADCK3 (human)) [%] | kinase still bound, per cent of control (PIK3CB (human)) [%] | kinase still bound, per cent of control (ERBB2 (human)) [%] | kinase still bound, per cent of control (IRAK1 (human)) [%] | kinase still bound, per cent of control (OXSR1 (human)) [%] | kinase still bound, per cent of control (ACVR1 (human)) [%] | kinase still bound, per cent of control [1] [%] | kinase still bound, per cent of control (MAPK12 (human)) [%] | other results
1 | N#CCNC(=O)c1ccc(-c2ccnc(Nc3ccc(N4CCOCC4)cc3)n2)cc1 | 88 | 49 | 12 | 100 | 100 | 8 | 100 | 56 | 100 | 52 | 68 | 82 | 90 | 100 | 61 | 1.3 | 58 | 0.95 | 100 | 100 | kinase still bound, per cent of control [2]: 100%; kinase still bound, per cent of control (MTOR (human)): 100%; kinase still bound, per cent of control (TIE1 (human)): 87%; kinase still bound, per cent of control (MARK2 (human)): 43%; kinase still bound, per cent of control (MAPK14 (human)): 100%; kinase still bound, per cent of control (DSTYK (human)): 38%; kinase still bound, per cent of control (PDPK1 (human)): 100%; kinase still bound, per cent of control (GAK (human)): 3.4%; kinase still bound, per cent of control (CLK2 (human)): 7.4%; kinase still bound, per cent of control (STK35 (human)): 57%; kinase still bound, per cent of control (RIOK3 (human)): 0%; kinase still bound, per cent of control (TGFBR1 (human)): 76%; kinase still bound, per cent of control [3]: 100%; kinase still bound, per cent of control (RPS6KA5 KD1 (human)): 100%; kinase still bound, per cent of control (AURKB (human)): 69%; kinase still bound, per cent of control (RIPK2 (human)): 88%; kinase still bound, per cent of control (HCK (human)): 100%; kinase still bound, per cent of control (DYRK1A (human)): 66%; kinase still bound, per cent of control (STK10 (human)): 100%
2 | O=c1cc(N2CCOCC2)oc2c(-c3cccc4c3sc3ccccc34)cccc12 | 80 | 100 | 74 | 80 | 100 | 78 | 99 | 96 | 62 | 85 | 100 | 100 | 72 | 0 | 100 | 96 | 100 | 91 | 59 | 99 | kinase still bound, per cent of control [4]: 66%; kinase still bound, per cent of control [2]: 100%; kinase still bound, per cent of control (MTOR (human)): 18%; kinase still bound, per cent of control (TIE1 (human)): 100%; kinase still bound, per cent of control (MARK2 (human)): 90%; kinase still bound, per cent of control (MAPK14 (human)): 98%; kinase still bound, per cent of control (DSTYK (human)): 99%; kinase still bound, per cent of control (PDPK1 (human)): 95%; kinase still bound, per cent of control (GAK (human)): 89%; kinase still bound, per cent of control (CLK2 (human)): 65%; kinase still bound, per cent of control (STK35 (human)): 80%; kinase still bound, per cent of control (RIOK3 (human)): 100%; kinase still bound, per cent of control (TGFBR1 (human)): 100%; kinase still bound, per cent of control [3]: 100%; kinase still bound, per cent of control (RPS6KA5 KD1 (human)): 100%; kinase still bound, per cent of control (AURKB (human)): 100%; kinase still bound, per cent of control (RIPK2 (human)): 91%; kinase still bound, per cent of control (HCK (human)): 100%; kinase still bound, per cent of control (DYRK1A (human)): 61%; kinase still bound, per cent of control (STK10 (human)): 100%
3 | COc1cc(C(=O)N2CCC(N3CCN(C)CC3)CC2)ccc1Nc1ncc2c(n1)N(C)c1ccccc1C(=O)N2C | 99 | 98 | 100 | 100 | 100 | 93 | 72 | 96 | 77 | 71 | 100 | 77 | 71 | 96 | 100 | 100 | 88 | 98 | 100 | 76 | kinase still bound, per cent of control [4]: 100%; kinase still bound, per cent of control [2]: 100%; kinase still bound, per cent of control (MTOR (human)): 97%; kinase still bound, per cent of control (TIE1 (human)): 100%; kinase still bound, per cent of control (MARK2 (human)): 100%; kinase still bound, per cent of control (MAPK14 (human)): 87%; kinase still bound, per cent of control (DSTYK (human)): 16%; kinase still bound, per cent of control (PDPK1 (human)): 100%; kinase still bound, per cent of control (GAK (human)): 16%; kinase still bound, per cent of control (CLK2 (human)): 72%; kinase still bound, per cent of control (STK35 (human)): 100%; kinase still bound, per cent of control (RIOK3 (human)): 85%; kinase still bound, per cent of control (TGFBR1 (human)): 100%; kinase still bound, per cent of control [3]: 100%; kinase still bound, per cent of control (RPS6KA5 KD1 (human)): 96%; kinase still bound, per cent of control (AURKB (human)): 38%; kinase still bound, per cent of control (RIPK2 (human)): 100%; kinase still bound, per cent of control (HCK (human)): 100%; kinase still bound, per cent of control (DYRK1A (human)): 99%; kinase still bound, per cent of control (STK10 (human)): 100%
